Values of other authors, collected in patent publication US20220168251A1, “PROCESS FOR PRODUCTION OF A NANO-MICROEMULSION SYSTEM OF FERULIC” (priority 2020, published 2022).

Tested on: hypertensive rats
Settings: 8 weeks of treatment

Structure (SMILES): COc1cc(/C=C/C(=O)O)ccc1O [ferulic acid, Ferulic acid]
- blood flow to kidney: improvement
- left ventricular stiffness in heart: decrease
- systolic blood pressure: significant decrease
